System: HL-60
Assay: Inhibitory dose against HL60 human leukemic cells after incubation for 48 h
Format: functional
Conditions: HL-60, 48 h, read-out: ID50 (the source's name)

IC50	SMILES
2.45 µM	CCCCCCCCCCCCCCCCCC(=O)NCC(COP(=O)([O-])OCC[N+](C)(C)C)OC (stereo unspecified)
> 10 µM	CCCCCCCCCCCCCCCC(=O)NCC(O)COP(=O)([O-])OCC[N+](C)(C)C (stereo unspecified)
1.64 µM	CCCCCCCCCCCCCCCCCC(=O)NCC(COP(=O)([O-])OCC[N+](C)(C)C)OCC (stereo unspecified)
3.32 µM	CCCCCCCCCCCCCCCC(=O)NCC(COP(=O)([O-])OCC[N+](C)(C)C)OC (stereo unspecified)
2.47 µM	CCCCCCCCCCCCCCCCCCOCC(COP(=O)([O-])OCC[N+](C)(C)C)OC (racemic) [EDELFOSINE]
2.32 µM	CCCCCCCCCCCCCCCC(=O)NCC(COP(=O)([O-])OCC[N+](C)(C)C)OCC (stereo unspecified)

Source: ChEMBL document CHEMBL1124292, “Synthesis and evaluation of neoplastic cell growth inhibition of 1-N-alkylamide analogues of glycero-3-phosphocholine” (1988)
